Results on 15 compounds are retold here after PubChem BioAssay AID1259408 (Genetic Toxicology Data Bank (GENE-TOX), 2018).

Activity calls are given as the source filed them. No rule for the calls is given here.

The series deals with GENE-TOX genotoxicity assays, various organisms and cells. Description: GENE-TOX mutagenicity studies. To be noted: for call: Assay Type: In vivo carcinogenicity studies.
The mark [1] stands for this setting: Species/Cell Type: Chinese hamster lung (V79) cells, Assay Type: Forward gene mutation at the HPRT or ouabain locus, Assay Code: V79+, Evaluation Type: Evaluation A (Pre-1980).
[2] abbreviates: Species/Cell Type: Drosophila melanogaster, Assay Type: Sex-linked recessive lethal gene mutation, Assay Code: SRL+, Evaluation Type: Evaluation A (Pre-1980).
Where [3] appears, read: Species/Cell Type: Nonhuman, Assay Code: CCG+L, Evaluation Type: Evaluation A (Pre-1980).
Where [4] appears, read: Species/Cell Type: Salmonella typhimurium (one or more of the five standard strains: TA98, TA100, TA1535, TA1537, and TA1538), Assay Type: Histidine reverse gene mutation, Ames assay, Assay Code: SAL+, Evaluation Type: Evaluation A (Pre-1980).
Where [5] appears, read: Species/Cell Type: Saccharomyces cerevisiae, Assay Type: Reverse gene mutation, Assay Code: YERT, Evaluation Type: Evaluation A (Pre-1980).
The mark [6] stands for this setting: Species/Cell Type: Salmonella typhimurium (one or more of the five standard strains: TA98, TA100, TA1535, TA1537, and TA1538), Assay Type: Histidine reverse gene mutation, Ames assay, Assay Code: SALT, Evaluation Type: Evaluation A (Pre-1980).

In the case of `CC(=O)ON(C(C)=O)c1ccc2c(c1)Cc1ccccc1-2`, the mutagenic call was “active; positive” under setting [1]; “active; positive” under setting [2]; “active; positive” (Species/Cell Type: Escherichia coli polA (W3119 vs P3478), Assay Type: Rec-assay, DNA effects (bacterial DNA repair), Assay Code: RE1+, Evaluation Type: Evaluation A (Pre-1980)); “active; positive” (Species/Cell Type: Fischer rat embryo (RLV/1706) cells, Assay Type: Cell transformation, viral enhanced, Assay Code: CTR+, Evaluation Type: Evaluation A (Pre-1980)); “active; positive” (Species/Cell Type: Human diploid fibroblasts, Assay Type: Unscheduled DNA synthesis (UDS) in vitro, DNA effects, Assay Code: UDH+D, Dose Response: With dose response, Evaluation Type: Evaluation A (Pre-1980)); “active; positive” (Species/Cell Type: Human lymphocytes, Assay Type: Sister-chromatid exchange (SCE) in vitro, Assay Code: SCL+, Evaluation Type: Evaluation B (Post-1980)). For the same compound, the mutagenic call is “active; positive” (Species/Cell Type: Human, Assay Type: Sister-chromatid exchange (SCE) in vitro, Assay Code: SC1+, Evaluation Type: Evaluation A (Pre-1980)); “active; positive” (Species/Cell Type: Mouse (BALB/c-3T3) cells, Assay Type: Cell transformation, Assay Code: CTB+, Evaluation Type: Evaluation A (Pre-1980)); “active; positive” (Species/Cell Type: Mouse (C3H/10T1/2) cells, Assay Type: Cell transformation, Assay Code: CTH+D, Dose Response: With dose response, Evaluation Type: Evaluation A (Pre-1980)); “active; positive” (Species/Cell Type: Mouse embryo (AKR/ME) cells, Assay Type: Cell transformation, Assay Code: CTK+, Evaluation Type: Evaluation A (Pre-1980)); “active; positive” (Species/Cell Type: Neurospora crassa, Assay Type: Reverse gene mutation, Assay Code: NER+, Evaluation Type: Evaluation A (Pre-1980)); “active; positive” (Species/Cell Type: Nonhuman, Assay Type: Sister-chromatid exchange (SCE) in vitro, Assay Code: SC2+D, Dose Response: With dose response, Evaluation Type: Evaluation A (Pre-1980)). For the same compound, the mutagenic call runs as follows: (Species/Cell Type: Nonhuman, Assay Type: Sister-chromatid exchange (SCE) in vivo, Assay Code: SC3+, Evaluation Type: Evaluation B (Post-1980)) “active; positive”; (Species/Cell Type: Nonhuman, Assay Type: Sister-chromatid exchange (SCE) in vivo, Assay Code: SC3T, Evaluation Type: Evaluation A (Pre-1980)) “no conclusion”; (Species/Cell Type: Rat primary hepatocytes, Assay Type: Unscheduled DNA synthesis (UDS) in vitro, DNA effects, Assay Code: UDP+, Evaluation Type: Evaluation A (Pre-1980)) “active; positive”; (Species/Cell Type: Saccharomyces cerevisiae, Assay Type: Mitotic recombination or gene conversion, Assay Code: YEC+, Evaluation Type: Evaluation A (Pre-1980)) “active; positive”; (Species/Cell Type: Saccharomyces cerevisiae, Assay Type: Mitotic recombination or gene conversion, Assay Code: YEH+, Evaluation Type: Evaluation A (Pre-1980)) “active; positive”; under setting [4], “active; positive”. Moreover, the mutagenic call is, setting by setting: (Species/Cell Type: Salmonella typhimurium, Assay Type: Forward and reverse gene mutation, host-mediated assay, Assay Code: HMA+, Evaluation Type: Evaluation A (Pre-1980)) “active; positive”; (Species/Cell Type: Syrian hamster embryo (SA7/SHE) cells, Assay Type: Cell transformation, viral enhanced, Assay Code: CT7+, Evaluation Type: Evaluation A (Pre-1980)) “active; positive”; (Species/Cell Type: Syrian hamster embryo (SHE) cells, Assay Type: Cell transformation, clonal assay, Assay Code: CTC+D, Dose Response: With dose response, Evaluation Type: Evaluation A (Pre-1980)) “active; positive”; (Species/Cell Type: Syrian hamster embryo (SHE) cells, Assay Type: Cell transformation, focus assay, Assay Code: CTF+, Evaluation Type: Evaluation A (Pre-1980)) “active; positive”. In addition, under setting [3], the call is “active; positive”.
Regarding `O=C(COc1ccc(Br)cc1CN1CCCCC1)N/N=C/c1ccccc1O`, the mutagenic call under setting [5] was “no conclusion”.
`Oc1cccc2cc3ccc4cccc5ccc(c12)c3c45`: for the setting “Species/Cell Type: Nonhuman, Assay Code: CCGT, Evaluation Type: Evaluation A (Pre-1980)”, the call is reported as “no conclusion”. In addition, under setting [6], the mutagenic call is recorded as “no conclusion”.
In the case of `Cc1nccc2c1[nH]c1ccccc12`, the mutagenic call was “active; positive” (Species/Cell Type: Human lymphocytes, Assay Type: Sister-chromatid exchange (SCE) in vitro, Assay Code: SCL+D, Dose Response: With dose response, Evaluation Type: Evaluation B (Post-1980)); “active; positive” (Species/Cell Type: Human, Assay Type: Sister-chromatid exchange (SCE) in vitro, Assay Code: SC1+D, Dose Response: With dose response, Evaluation Type: Evaluation B (Post-1980)); “no conclusion” under setting [6].
As for `CC1CCN(N=O)CC1`, the mutagenic call by setting is: (Species/Cell Type: Drosophila melanogaster, Assay Type: Aneuploidy, partial sex chromosome loss, chromosome aberrations, Assay Code: DAPT, Evaluation Type: Evaluation A (Pre-1980)) “no conclusion”; (Species/Cell Type: Drosophila melanogaster, Assay Type: Aneuploidy, whole sex chromosome loss, chromosome aberrations, Assay Code: DACT, Evaluation Type: Evaluation A (Pre-1980)) “no conclusion”; under setting [2], “active; positive”; (Species/Cell Type: Saccharomyces cerevisiae, Assay Type: Forward gene mutation, Assay Code: YEF+*, Activation: With metabolic activation, Evaluation Type: Evaluation A (Pre-1980)) “active; positive”; (Species/Cell Type: Salmonella typhimurium (one or more of the five standard strains: TA98, TA100, TA1535, TA1537, and TA1538), Assay Type: Histidine reverse gene mutation, Ames assay, Assay Code: SAL+*, Activation: With metabolic activation, Evaluation Type: Evaluation A (Pre-1980)) “active; positive”.
For `CC(F)F`, the mutagenic call (Species/Cell Type: Drosophila melanogaster, Assay Type: Sex-linked recessive lethal gene mutation, Assay Code: SRLT, Evaluation Type: Evaluation A (Pre-1980)) is recorded as “no conclusion”.
For the compound `CC(C)(C)N(CCCC(=O)O)N=O`, under setting [6], the mutagenic call is listed as “no conclusion”.
In the case of `CCOS(=O)(=O)CC`, the mutagenic call (Species/Cell Type: Arabidopsis species, Assay Type: Gene mutation, Assay Code: ARM+, Evaluation Type: Evaluation A (Pre-1980)) was “active; positive”; the mutagenic call (Species/Cell Type: Hordeum vulgare (barley), Assay Type: Chromosome aberrations, Assay Code: HOC-, Evaluation Type: Evaluation A (Pre-1980)) is “inactive; negative”; the mutagenic call (Species/Cell Type: Hordeum vulgare (barley), Assay Type: Gene mutation, Assay Code: HOM+D, Dose Response: With dose response, Evaluation Type: Evaluation A (Pre-1980)) was “active; positive”.
As to `COc1ccc2nc3cc(Cl)ccc3c(NCCCNCCO)c2c1`, the mutagenic call is “inactive; negative” (Species/Cell Type: Chinese hamster ovary (CHO) cells, Assay Type: Forward gene mutation at the HPRT locus, Assay Code: CHO-, Evaluation Type: Evaluation A (Pre-1980)); “no conclusion” (Species/Cell Type: Chinese hamster ovary (CHO) cells, Assay Type: Forward gene mutation at the HPRT locus, Assay Code: CHOT, Evaluation Type: Evaluation B (Post-1980)); “no conclusion” under setting [6].
In the case of `O=S(=O)(O)c1cccc(Nc2nc(Nc3ccc(/C=C/c4ccc(Nc5nc(Nc6cccc(S(=O)(=O)O)c6)nc(N(CCO)CCO)n5)cc4S(=O)(=O)O)c(S(=O)(=O)O)c3)nc(N(CCO)CCO)n2)c1`, the mutagenic call (Species/Cell Type: Nonhuman, Assay Type: Sister-chromatid exchange (SCE) in vitro, Assay Code: SC2T, Evaluation Type: Evaluation A (Pre-1980)) was “no conclusion”.
Turning to `Cc1c2ccccc2c(CO)c2c3c(ccc12)[C@@H](O)[C@H](O)C=C3`, the mutagenic call under setting [1] was “active; positive”. The call under setting [3] was “active; positive”.
Turning to `CCCCN(N=O)C(CCC)OC(C)=O` (stereo unspecified), the mutagenic call under setting [4] was “active; positive”.
`CCN(CC)Cc1cc(Br)ccc1OCC(=O)N/N=C/c1ccc(O)c(OC)c1`: the mutagenic call under setting [5] is given as “no conclusion”.
`COc1cc2c(c3oc4cccc(O)c4c(=O)c13)[C@@H]1C=CO[C@@H]1O2`: the mutagenic call is “no conclusion” (Species/Cell Type: Bacillus subtilis (H17 vs M45), Assay Type: Rec-assay, spot test, DNA effects (bacterial DNA repair), Assay Code: REWT, Evaluation Type: Evaluation A (Pre-1980)); “active; positive” (Species/Cell Type: Human diploid fibroblasts, Assay Type: Unscheduled DNA synthesis (UDS) in vitro, DNA effects, Assay Code: UDH+*, Activation: With metabolic activation, Evaluation Type: Evaluation A (Pre-1980)); “active; positive” (Species/Cell Type: Neurospora crassa, Assay Type: Forward gene mutation, Assay Code: NEF+, Evaluation Type: Evaluation A (Pre-1980)); “active; positive” (Species/Cell Type: Nonhuman, Assay Type: Chromosome aberrations in vitro, Assay Code: CY&+, Evaluation Type: Evaluation A (Pre-1980)); “active; positive” (Species/Cell Type: Nonhuman, Assay Type: Sister-chromatid exchange (SCE) in vivo, Assay Code: SC3+D, Dose Response: With dose response, Evaluation Type: Evaluation B (Post-1980)); “active; positive” (Species/Cell Type: Saccharomyces cerevisiae, Assay Type: Mitotic recombination or gene conversion, Assay Code: YEH+*, Activation: With metabolic activation, Evaluation Type: Evaluation A (Pre-1980)). Also, the mutagenic call under setting [4] was “active; positive”. For the same compound, for the setting “Species/Cell Type: Nonhuman, Assay Code: CCG+, Evaluation Type: Evaluation A (Pre-1980)”, the call was “active; positive”.
On to `Cn1sc(Cl)cc1=O`, for which, where the note is “Species/Cell Type: Mammalian polychromatic erythrocytes, Assay Type: Micronucleus test, chromosome aberrations, Assay Code: MNT-, Evaluation Type: Evaluation B (Post-1980)”, the mutagenic call was “inactive; negative”.
